From ChEMBL document CHEMBL4428041, “Identification and SAR Evaluation of Hemozoin-Inhibiting Benzamides Active against Plasmodium falciparum” (J Med Chem, 2016) come the findings set out here.

pIC50: −log10 of the molar value.

The test system of the assay is Hemozoin. Description: Inhibition of beta-hematin.

As a reminder, the pIC50 is −log10 of the IC50, conventionally taken in molar units. Higher therefore signals a low IC50. With `CCN(CC)Cc1cc(Nc2ccnc3cc(Cl)ccc23)ccc1O` [AMODIAQUINE], the negative logarithm of the IC50 (pIC50) was 4.68.
